Biological target: T1, NLRP3 (Homo sapiens, UniProt Q96P20)
T1 construct: purified human GST-NLRP3
Experiment: microscale thermophoresis with purified GST-NLRP3; also biotin-Eri pull-down and ATPase inhibition
Format: binding

T1 sequence (Q96P20 whole entry): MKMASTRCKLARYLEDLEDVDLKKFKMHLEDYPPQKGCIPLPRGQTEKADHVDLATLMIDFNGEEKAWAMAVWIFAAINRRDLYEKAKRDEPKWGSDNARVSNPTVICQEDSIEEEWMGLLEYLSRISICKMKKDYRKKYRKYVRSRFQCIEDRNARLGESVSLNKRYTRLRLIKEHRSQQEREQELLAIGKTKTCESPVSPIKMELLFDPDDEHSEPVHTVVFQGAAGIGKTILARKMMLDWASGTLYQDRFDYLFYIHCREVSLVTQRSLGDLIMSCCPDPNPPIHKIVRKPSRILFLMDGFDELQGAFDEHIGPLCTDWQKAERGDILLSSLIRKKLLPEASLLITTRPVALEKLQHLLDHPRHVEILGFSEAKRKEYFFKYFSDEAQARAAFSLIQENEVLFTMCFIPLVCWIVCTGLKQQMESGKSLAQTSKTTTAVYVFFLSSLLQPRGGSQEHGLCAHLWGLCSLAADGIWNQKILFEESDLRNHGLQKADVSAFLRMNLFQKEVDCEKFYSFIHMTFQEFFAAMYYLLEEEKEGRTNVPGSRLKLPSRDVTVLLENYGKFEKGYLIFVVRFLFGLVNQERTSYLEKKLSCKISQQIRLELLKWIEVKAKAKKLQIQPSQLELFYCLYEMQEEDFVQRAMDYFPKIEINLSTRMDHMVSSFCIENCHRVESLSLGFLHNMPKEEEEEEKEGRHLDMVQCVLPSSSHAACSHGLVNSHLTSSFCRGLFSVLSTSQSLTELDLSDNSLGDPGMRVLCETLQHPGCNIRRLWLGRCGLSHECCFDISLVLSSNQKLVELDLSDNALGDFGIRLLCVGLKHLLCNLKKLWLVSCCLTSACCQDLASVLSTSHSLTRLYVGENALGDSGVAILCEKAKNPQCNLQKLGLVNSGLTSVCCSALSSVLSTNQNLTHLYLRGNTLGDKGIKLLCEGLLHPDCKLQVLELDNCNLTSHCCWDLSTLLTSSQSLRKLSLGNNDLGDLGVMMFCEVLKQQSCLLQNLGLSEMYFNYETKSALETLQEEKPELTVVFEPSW

COc1ccc(CCc2cc(OC)c(OC)c(OC)c2)cc1O [Eri, Erianin]
Kd: ~50 nM

— article PMC8564113, “Erianin: A Direct NLRP3 Inhibitor With Remarkable Anti-Inflammatory Activity” (Frontiers in Immunology, 2021)
